Laboratory results as given in patent US20230406855A1, “N-1 BRANCHED IMIDAZOQUINOLINES, CONJUGATES THEREOF, AND METHODS” (3M INNOVATIVE PROPERTIES COMPANY, priority 2020, published 2023).

How the values were obtained:
[1] = test system: LHRH receptor expressing tumor cells; conditions: free Dox relative to LHRH-conjugated Dox; cited from earlier work
[2] = test system: Human peripheral blood mononuclear cells (PBMC); test: Cytokine induction in human cells (PBMC), Ella Simple Plex ELISA; format: cell-based; conditions: 21-24 hours, lowest concentration giving cytokine at least 2x negative control, tested 0.01-30 micromolar
Experimental: Whole blood was obtained from healthy human donors and collected by venipuncture into vacutainer tubes or syringes containing EDTA. Human peripheral blood mononuclear cells (PBMC) were purified from the whole blood by density gradient centrifugation. Histopaque 1077 (15 mL, Sigma, St. Louis, MO) was transferred to 6×50 mL sterile polypropylene conical tubes. The Histopaque was overlayed with 15-25 mL of blood diluted 1:2 in Hank's Balanced Salts Solution (HBSS) (Gibco, Life Technologies, Grand Island, NY). The tubes were then centrifuged at 1370 rpm for 30 minutes at 20° C., with no brake (400×g, GH 3.8 A Rotor).
The interface (buffy coat) containing the PBMC was collected and placed in a new sterile 50 mL conical polypropylene centrifuge tube. The PBMC were mixed with an equal volume of HBSS (about 20 mL from the interface and about 20 mL of HBSS), and then centrifuged at 1090 rpm, 10 minutes, 20° C., with brake (270×g, GH 3.8 A Rotor). After completing centrifugation, the cells were resuspended in 2-3 mL ACK Red blood cell lysis buffer (ammonium chloride potassium solution, Gibco, Life Technologies) and incubated for 2-5 minutes at 20° C. Next, HBSS (40 mL) was added to the cells, and the sample was centrifuged at 270×g for 10 minutes at 20° C. The supernatant was decanted, and the cell pellet was resuspended in 5 mL AIM V Medium (Gibco, Life Technologies). Cell aggregates and debris were removed by filtering the cell solution through a BD Falcon 70 micron nylon cell strainer (BD Biosciences, San Jose, CA).
The number of viable cells was determined by counting with a Moxi Z instrument (ORFLO Technologies, Ketchum, ID) or by using a hemacytometer. For determining cell viability with a hemacytometer, the cells were diluted 1/10 in 0.4% trypan blue and HBSS (specifically, 50 microliter of trypan blue+40 microliter of HBSS+10 microliter of cell solution were added to a microfuge tube and mixed). Ten microliters of the diluted cells were then applied to the hemacytometer, and the number of viable PBMC were determined by microscopy.
The PBMC sample was then resuspended in 96-well plates at a concentration of 8×10^5 cells/well in 0.1 mL of AIM-V medium. Each compound was solubilized in dimethyl sulfoxide (DMSO) to create a 3 mM stock solution. The stock solution was then further diluted with AIM-V medium to prepare the serial dilutions. The diluted compound (100 microliters) was then transferred to the PBMCs to produce testing sets with final compound concentrations of 30, 10, 3.3, 1.1, 0.37, 0.12, 0.04, 0.01 micromolar. The plates also had both positive and negative controls. The negative control wells contained only AIM-V medium with no example compound. The positive control wells contained a control set of imiquimod serially diluted to concentrations of 30, 10, 3.3, 1.1, 0.37, 0.12, 0.04, 0.01 micromolar. The concentrations used in the control set were selected to match the concentrations used in the testing set. The plates were then cultured at 37° C./5% CO2 for 21-24 hours. Cell-free supernatants were harvested by centrifuging the 96-well plates at 2100 rpm, 23° C. for 10 minutes. Approximately 160 microliters of the supernatant was then stored in a NUNC 96-well plate, covered with the compression cap and stored at −80° C. until the cytokine analysis was done.
Cytokine levels (human IFN-alpha multisubtype, human IFN-gamma, and human TNF-alpha) were measured in picograms/mL by Ella Simple Plex ELISA (ProteinSimple, San Jose, CA) according to the manufacturer's instructions.
Specifically, the minimum effective concentration of each compound (micromolar) was determined as the lowest concentration of the compound that induced a measured cytokine response at a level ([…]) that was at least 2× greater than that observed with the negative control wells.

human TLR7 = target: T1, human TLR7 (Homo sapiens, UniProt Q9NYK1); test: TLR activation and specificity, HEK-BLUE-hTLR7 SEAP reporter cells; format: cell-based; conditions: 16-20 hours, lowest concentration giving SEAP response at least 2x vehicle control, tested 0.01-30 micromolar
T1 construct: host or cells: HEK293 (HEK-BLUE-hTLR7)
T1 sequence (Q9NYK1 27-1049): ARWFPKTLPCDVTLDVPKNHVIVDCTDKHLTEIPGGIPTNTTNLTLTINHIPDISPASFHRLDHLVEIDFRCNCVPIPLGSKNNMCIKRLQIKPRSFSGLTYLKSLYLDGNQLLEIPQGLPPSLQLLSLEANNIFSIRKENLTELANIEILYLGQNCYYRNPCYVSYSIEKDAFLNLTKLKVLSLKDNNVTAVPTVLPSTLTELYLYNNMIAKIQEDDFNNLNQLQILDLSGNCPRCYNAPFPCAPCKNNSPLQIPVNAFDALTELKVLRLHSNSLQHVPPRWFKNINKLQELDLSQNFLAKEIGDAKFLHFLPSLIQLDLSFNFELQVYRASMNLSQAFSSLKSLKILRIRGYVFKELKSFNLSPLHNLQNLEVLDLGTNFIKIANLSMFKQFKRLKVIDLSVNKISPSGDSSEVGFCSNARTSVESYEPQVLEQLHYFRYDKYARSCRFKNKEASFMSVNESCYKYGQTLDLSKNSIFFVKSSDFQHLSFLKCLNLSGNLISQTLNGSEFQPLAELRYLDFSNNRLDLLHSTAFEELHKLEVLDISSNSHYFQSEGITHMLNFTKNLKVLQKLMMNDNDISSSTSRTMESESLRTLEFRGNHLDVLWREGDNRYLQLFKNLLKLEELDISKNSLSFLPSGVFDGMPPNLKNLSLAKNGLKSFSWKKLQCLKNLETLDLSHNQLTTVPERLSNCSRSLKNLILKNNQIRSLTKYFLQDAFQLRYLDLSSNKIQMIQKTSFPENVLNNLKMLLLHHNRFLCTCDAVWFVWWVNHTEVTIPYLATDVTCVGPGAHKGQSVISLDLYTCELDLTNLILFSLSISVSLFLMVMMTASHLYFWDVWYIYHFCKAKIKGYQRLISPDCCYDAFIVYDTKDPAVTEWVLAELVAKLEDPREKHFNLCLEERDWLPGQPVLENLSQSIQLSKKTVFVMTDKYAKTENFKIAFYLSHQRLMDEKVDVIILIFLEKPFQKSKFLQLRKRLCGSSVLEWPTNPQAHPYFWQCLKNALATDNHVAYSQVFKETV
Experimental: (§1) HEK-BLUE-hTLR7 or hTLR8 reporter cells were obtained from InvivoGen, San Diego, CA. According to the manufacturer's description, these reporter cells were prepared by co-transfection of HEK293 cells with an inducible secreted embryonic alkaline phosphatase (SEAP) reporter gene and either the human TLR7 or TLR8 gene. The SEAP reporter gene was placed under the control of an IFN-β minimal promoter fused to five NF-κB and AP-1-binding sites. In the presence of a TLR ligand, activation of NF-κB and AP-1 occurs, resulting in a corresponding increase in SEAP levels. […]
(§2) For each compound, hTLR7, hTLR8, and their respective null control HEK cells were screened. […] Cell culture supernatants containing the SEAP reporter were collected after an incubation period of 16-20 hours in a cell culture incubator (37° C. and 5% CO2), and either analyzed immediately or stored at −80° C. SEAP levels were measured using the colorimetric enzyme assay (QUANTI-BLUE (InvivoGen) according to manufacturer's instructions.
(§3) Specifically, the minimum effective concentration of each compound (micromolar) was determined as the lowest concentration of the compound that produced a SEAP expression response at least 2× greater than that observed with the vehicle control wells.

human TLR8 = target: T2, human TLR8 (Homo sapiens, UniProt Q9NR97); test: TLR activation and specificity, HEK-BLUE-hTLR8 SEAP reporter cells; format: cell-based; conditions: 16-20 hours, lowest concentration giving SEAP response at least 2x vehicle control, tested 0.01-30 micromolar
T2 construct: host or cells: HEK293 (HEK-BLUE-hTLR8)
T2 sequence (Q9NR97 27-1041): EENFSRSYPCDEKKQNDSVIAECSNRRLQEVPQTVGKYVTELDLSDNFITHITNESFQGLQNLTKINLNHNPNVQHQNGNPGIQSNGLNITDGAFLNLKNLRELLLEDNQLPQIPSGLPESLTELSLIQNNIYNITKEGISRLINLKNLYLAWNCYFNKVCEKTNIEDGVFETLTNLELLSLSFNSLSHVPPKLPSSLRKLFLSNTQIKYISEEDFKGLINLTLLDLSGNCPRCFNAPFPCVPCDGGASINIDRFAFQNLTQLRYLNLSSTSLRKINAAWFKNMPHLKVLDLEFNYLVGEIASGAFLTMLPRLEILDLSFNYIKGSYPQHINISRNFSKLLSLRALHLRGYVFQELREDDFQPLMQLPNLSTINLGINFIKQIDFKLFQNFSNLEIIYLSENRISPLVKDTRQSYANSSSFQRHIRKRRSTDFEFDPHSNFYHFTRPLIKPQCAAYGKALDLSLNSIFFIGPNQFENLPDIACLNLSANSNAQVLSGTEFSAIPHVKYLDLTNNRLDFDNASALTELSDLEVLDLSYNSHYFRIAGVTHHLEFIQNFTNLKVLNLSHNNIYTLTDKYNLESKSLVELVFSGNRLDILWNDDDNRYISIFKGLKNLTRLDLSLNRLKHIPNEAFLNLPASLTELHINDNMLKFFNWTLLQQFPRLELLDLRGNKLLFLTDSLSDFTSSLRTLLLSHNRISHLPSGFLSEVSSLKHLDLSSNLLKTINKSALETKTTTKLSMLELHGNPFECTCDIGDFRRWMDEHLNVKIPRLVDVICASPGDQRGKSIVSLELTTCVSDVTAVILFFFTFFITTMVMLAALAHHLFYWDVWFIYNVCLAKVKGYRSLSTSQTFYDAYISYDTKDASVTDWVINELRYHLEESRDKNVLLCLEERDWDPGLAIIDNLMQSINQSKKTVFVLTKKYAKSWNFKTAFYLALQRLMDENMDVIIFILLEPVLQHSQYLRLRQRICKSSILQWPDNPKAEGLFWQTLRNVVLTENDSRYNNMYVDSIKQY
Experimental: as §1, §2, §3

MEC to Produce TLR Activation, TLR 7 (human TLR7) | MEC to Produce TLR Activation, TLR 8 (human TLR8) | Compound | amount of free Dox required for antitumor activity equal to the LHRH conjugate [1] | MEC to Induce Cytokine IFN-alpha [2] | MEC to Induce Cytokine IFN-gamma [2] | MEC to Induce Cytokine TNF-alpha [2]
 |  | C[C@@H]1C[C@H]2[C@@H]3CCC4=CC(=O)C=C[C@]4(C)C3=CC[C@]2(C)[C@H]1C(=O)CN1CCN(c2cc(N3CCCC3)nc(N3CCCC3)n2)CC1 [Dox] | approximately 200 times |  |  | 
≤0.01 µM | 10 µM | C#CCOc1ccc(C[C@@H](COCC)n2cnc3c(N)nc4ccccc4c32)cc1 [Example 1, (S)-1-(1-ethoxy-3-(4-(prop-2-yn-1-yloxy)phenyl)propan-2-yl)-1H-imidazo[4,5-c]quinolin-4-amine] |  | ≤0.01 µM | ≤0.01 µM | ≤0.01 µM
≤0.01 µM | 3.3 µM | CCOC[C@H](Cc1ccc(OCc2cn(Cc3ccccc3)nn2)cc1)n1cnc2c(N)nc3ccccc3c21 [Example 2, (S)-1-(1-(4-((1-benzyl-1H-1,2,3-triazol-4-yl)methoxy)phenyl)-3-ethoxypropan-2-yl)-1H-imidazo[4,5-c]quinolin-4-amine] |  | ≤0.01 µM | ≤0.01 µM | ≤0.01 µM
